Source: patent publication US9132140B2, “Boronic acid derivatives and therapeutic uses thereof” (Rempex Pharmaceuticals, Inc., priority 2013, dated 2015)

Columns and labels:
KPC-2 [1] = biological target: T1, KPC-2 (Klebsiella pneumoniae, UniProt Q9F663); assay: Inhibition of purified beta-lactamase, nitrocefin cleavage; type: biochemical; conditions: read-out: Ki (KPC-2, NCF)
Method: Purified enzymes were mixed with various concentrations of inhibitors in reaction buffer and incubated for 10 min at room temperature. Nitrocefin was added and substrate cleavage profiles were recorded at 490 nm every 10 sec for 10 min.

KPC-2 [2] = biological target: T1, KPC-2; assay: Inhibition of purified class A carbapenemase, biapenem cleavage; type: biochemical; conditions: substrate biapenem 100 μM
ECM6711 (pUCP24-VIM-1) = assay: microbe, parasite or virus in culture; type: cell-based, E. coli; conditions: VIM-1 producing strain; compound fixed 4 μg/ml or 8 μg/ml
[3] = test system: panel of clinical isolates expressing class A, B and D carbapenemases; assay: Carbapenem potentiation MIC, whole panel; type: cell-based; conditions: all strains of the panel; compound fixed 5 μg/ml
From the text: The results are present in Table 6.
The results are present in Table 7.

ECM6703 (pUCP24-NDM-1) = assay: microbe, parasite or virus in culture; type: cell-based, E. coli; conditions: NDM-1 producing strain; compound fixed 4 μg/ml or 8 μg/ml

T1 sequence (Q9F663 25-293, looked up, species assumed): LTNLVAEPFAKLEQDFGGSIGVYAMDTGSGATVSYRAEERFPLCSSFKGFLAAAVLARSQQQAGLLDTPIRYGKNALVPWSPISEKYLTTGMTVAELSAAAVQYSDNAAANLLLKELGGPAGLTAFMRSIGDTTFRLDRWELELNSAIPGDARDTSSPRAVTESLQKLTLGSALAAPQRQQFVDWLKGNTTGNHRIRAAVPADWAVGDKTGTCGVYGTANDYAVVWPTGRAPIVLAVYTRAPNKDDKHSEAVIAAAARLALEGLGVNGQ

SMILES: O=C(O)c1cccc2c1OB(O)[C@@H](Sc1nncs1)C2 [Compound 1, (R)-3-(1,3,4-thiadiazol-2-ylthio)-2-hydroxy-3,4-dihydro-2H-benzo[e][1,2]oxaborinine-8-carboxylic acid]
- Ki (KPC-2 [1]): 100 to 1000 nM
- Ki (KPC-2 [2]): 10 to 100 nM
- imipenem MIC in the presence of compound (ECM6711 (pUCP24-VIM-1)): decreased to the level of the strain containing empty vector
- carbapenem MIC in the presence of compound [3]: significantly reduced
- imipenem MIC in the presence of compound (ECM6703 (pUCP24-NDM-1)): decreased to the level of the strain containing empty vector
